# Test results published in patent publication US10662159B2, “ABHD6 and dual ABHD6/MGL inhibitors and their uses” (MAKScientific, LLC, priority 2017, dated 2020).
# What was measured:
# Format in all cases: biochemical
# hABHD6 = hABHD6 (Homo sapiens (Human), UniProt Q9BV23); assay: Fluorescent assay for hABHD6 (AHMMCE substrate hydrolysis); conditions: membrane fraction containing full-length hABHD6, 20 μM AHMMCE; read-out: ABHD6 Inhibition IC50
# Protocol: (§1) Certain compounds were tested for their ABHD6 and dual ABHD6/MGL inhibitory activity, which is expressed as % of inhibition or IC50 values in Table 1. The percentage of inhibition describes the percentage by which the inhibitor reduces the velocity/rate of 2-AG hydrolysis by ABHD6, and MGL or AEA hydrolysis by FAAH. […] The lower the IC50 values, the higher its inhibitory activity. A detailed description of the methods used to test inhibitory activity of compounds is given below.
# Fluorescent Assays Protocol for hABHD6
# Initial Fluorescent Inhibition Assay (3-Point)—
# In each well of a 96-well plate 8 μL of membrane fraction containing full-length hABHD6 (1 μg total protein) was mixed with 168 μL of assay buffer (50 mM Tris-HCl, pH 7.6), and 20 μL of diluted compound (diluted in a dilution buffer consisting of 50% DMSO/50% assay buffer v/v). Each plate was incubated at RT for 15 minutes before adding 4 μL of 1 mM AHMMCE substrate (final concentration of 20 μM AHMMCE and final volume of 200 μL). The reaction was allowed to proceed for 1 hr at RT before the fluorescence was read at λex 360 nm and λem 460 nm and the inhibition calculated. Each experiment can test 8 compounds at three concentrations (usually 10 μM, 1 μM, and 100 nM).
# IC50 Determination Assay (8-Point)—
# A more detailed assay with an extended range tests compounds over 8 concentrations depending on the pre-determined approximate IC50 value from the initial screen. […] The assay was conducted in 96 well plate with each well containing the same reaction mixture detailed above in the 3-point screen. The relative fluorescence is quantified into coumarin produced by using a standard curve of HMMC in triplicate on each plate. Results are normalized to the negative control wells and the IC50 is determined using a non-linear regression curve fit in Prism, version 5 (GraphPad, San Diego, Calif.).
# hMGL = hMGL (Homo sapiens (Human), UniProt Q99685); assay: Fluorescent assay for hMGL (AHMMCE substrate hydrolysis); conditions: E. coli lysate containing hMGL, read-out: hMGL Inhibition IC50
# Protocol: as §1
# Preparation of Human MAGL (hMAGL)
# Fluorescent Assay Protocol for hMGL
# This medium throughput assay involved a 96-well plate format in which hMGL activity was monitored by the hydrolysis of the substrate […] (AHMMCE) to form the fluorescent product, coumarin. […] Upon the addition of AHMMCE, the reaction was incubated at 25° C. for 120 min; fluorescence readings were taken every 15 min at 360 nm/460 nm (λexcitation/λemission) using a Synergy HT Plate Reader (Bio-Tek, Winooski, Vt.). […] External standards were used to convert relative fluorescence units to the amount of 4-methylcoumarin formed. All MGL assays were performed in triplicate for each inhibitor concentration, and IC50 values were calculated using Prizm software (GraphPad Software, Inc., San Diego, Calif.).
# Rat ΔTM FAAH = Rat ΔTM FAAH (Rattus norvegicus (Rat), UniProt P97612); assay: Fluorescent assay for rat ΔTM FAAH (AAMCA substrate); conditions: ΔTM rFAAH, AAMCA 20 μM; read-out: rFAAH Inhibition IC50
# Protocol: (§2) Certain compounds were tested for their ABHD6 and dual ABHD6/MGL inhibitory activity, which is expressed as % of inhibition or IC50 values in Table 1. The percentage of inhibition describes the percentage by which the inhibitor reduces the velocity/rate of 2-AG hydrolysis by ABHD6, and MGL or AEA hydrolysis by FAAH. The IC50 is the concentration of the inhibitor, which results in 50% inhibition of the velocity/rate of 2-AG hydrolysis by ABHD6 or MGL. The IC50 is the concentration of the inhibitor, which results in 50% inhibition of the velocity/rate of AEA hydrolysis by FAAH. The lower the IC50 values, the higher its inhibitory activity. A detailed description of the methods used to test inhibitory activity of compounds is given below.
# Example 79. Preparation of Transmembrane Domain-Deleted Rat FAAH (ΔTM rFAAH)
# Rat ΔTM FAAH was expressed in E. coli cells and purified using the procedure disclosed by Patricelli et al. Biochemistry (1998) 37: 15177-15187.
# Example 81. Fluorescent Assay Protocol for Rat ΔTM FAAH
# (§3) The fluorescence reading at the 3 hour time point (linear enzyme kinetics) was used to calculate percent inhibition based on control assays without inhibitor present. All FAAH assays were performed in triplicate for each inhibitor concentration, and IC50 values determined using Prizm software (GraphPad Software, Inc.).
# hFAAH = hFAAH (Homo sapiens (Human), UniProt O00519); assay: Fluorescent assay for hFAAH; conditions: MBP ΔTM hFAAH, procedure as for rFAAH; read-out: hFAAH Inhibition IC50
# Protocol: as §2
# Example 80. Preparation of Human FAAH in Fusion with N-Terminal Maltose Binding Tag (MBP ΔTM hFAAH)
# Human FAAH without putative transmembrane domain following maltose binding protein was expressed in E. coli cells using pMALcE4 vector Alapafuja et al J. Med. Chem. (2012) 55: 10074-89.
# as §3
# Example 82. Fluorescent Assay Protocol for hFAAH
# Procedure was followed as described for rFAAH.
# Chain of hABHD6 (Q9BV23 whole entry): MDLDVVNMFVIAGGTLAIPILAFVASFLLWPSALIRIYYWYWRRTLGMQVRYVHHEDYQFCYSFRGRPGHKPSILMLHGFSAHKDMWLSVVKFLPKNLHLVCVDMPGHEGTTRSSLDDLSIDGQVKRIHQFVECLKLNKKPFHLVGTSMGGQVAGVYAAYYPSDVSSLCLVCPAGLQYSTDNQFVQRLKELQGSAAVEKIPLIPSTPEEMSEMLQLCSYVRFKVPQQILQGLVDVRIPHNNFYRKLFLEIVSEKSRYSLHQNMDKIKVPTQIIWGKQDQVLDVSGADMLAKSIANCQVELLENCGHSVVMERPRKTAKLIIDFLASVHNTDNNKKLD
# Chain of hMGL (Q99685 whole entry): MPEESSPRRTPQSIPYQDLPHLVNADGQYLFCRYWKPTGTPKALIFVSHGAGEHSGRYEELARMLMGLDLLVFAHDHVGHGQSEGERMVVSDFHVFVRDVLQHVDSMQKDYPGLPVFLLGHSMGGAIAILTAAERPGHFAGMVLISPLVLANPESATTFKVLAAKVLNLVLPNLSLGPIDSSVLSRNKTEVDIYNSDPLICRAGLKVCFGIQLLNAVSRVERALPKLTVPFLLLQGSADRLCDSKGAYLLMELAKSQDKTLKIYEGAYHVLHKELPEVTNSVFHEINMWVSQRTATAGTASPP
# Chain of hFAAH (O00519 30-579): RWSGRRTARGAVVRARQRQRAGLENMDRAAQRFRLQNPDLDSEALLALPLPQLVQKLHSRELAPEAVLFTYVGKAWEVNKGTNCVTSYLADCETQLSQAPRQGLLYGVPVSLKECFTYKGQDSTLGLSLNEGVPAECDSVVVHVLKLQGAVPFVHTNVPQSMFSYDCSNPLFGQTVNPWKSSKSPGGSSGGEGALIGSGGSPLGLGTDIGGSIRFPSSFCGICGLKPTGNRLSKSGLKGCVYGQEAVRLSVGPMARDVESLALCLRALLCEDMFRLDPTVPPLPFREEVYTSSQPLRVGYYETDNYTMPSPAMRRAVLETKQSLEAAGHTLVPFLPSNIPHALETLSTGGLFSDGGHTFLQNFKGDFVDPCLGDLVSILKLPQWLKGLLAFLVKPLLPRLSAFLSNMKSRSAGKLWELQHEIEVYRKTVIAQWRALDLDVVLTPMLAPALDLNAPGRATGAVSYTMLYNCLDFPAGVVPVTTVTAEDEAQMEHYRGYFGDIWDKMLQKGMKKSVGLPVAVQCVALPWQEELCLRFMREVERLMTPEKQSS
# Chain of Rat ΔTM FAAH (P97612 30-579): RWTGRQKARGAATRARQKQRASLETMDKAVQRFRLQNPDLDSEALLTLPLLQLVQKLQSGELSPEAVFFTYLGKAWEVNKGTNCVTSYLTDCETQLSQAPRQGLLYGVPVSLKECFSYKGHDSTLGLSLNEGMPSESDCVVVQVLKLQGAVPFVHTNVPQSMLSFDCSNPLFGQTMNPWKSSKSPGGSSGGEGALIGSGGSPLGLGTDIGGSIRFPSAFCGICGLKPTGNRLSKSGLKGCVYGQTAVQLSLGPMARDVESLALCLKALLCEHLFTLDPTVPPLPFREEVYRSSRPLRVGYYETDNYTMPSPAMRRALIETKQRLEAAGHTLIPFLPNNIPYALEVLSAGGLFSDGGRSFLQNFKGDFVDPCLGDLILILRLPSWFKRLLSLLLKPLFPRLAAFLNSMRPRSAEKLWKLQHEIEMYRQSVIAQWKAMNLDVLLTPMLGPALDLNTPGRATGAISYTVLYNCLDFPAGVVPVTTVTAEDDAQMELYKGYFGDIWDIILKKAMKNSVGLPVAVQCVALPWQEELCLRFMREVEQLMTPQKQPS
IC50 (hABHD6) [nM],IC50 (hMGL) [nM],IC50 (Rat ΔTM FAAH) [nM],IC50 (hFAAH) [nM],SMILES
10 to 100,10 to 100,> 1000,> 1000,"O=C(OC(C(F)(F)F)C(F)(F)F)N1CC2(CC(Oc3cccc(C(F)(F)F)c3)C2)C1 [Example 52, 1,1,1,3,3,3-Hexafluoropropan-2-yl 6-(3-(trifluoromethyl)phenoxy)-2-azaspiro [3.3]heptane-2-carboxylate]"
> 1000,> 1000,> 1000,> 1000,"CCC1c2ccccc2CCN1C(=O)OC(C(F)(F)F)C(F)(F)F (racemic) [Example 7, 1,1,1,3,3,3-Hexafluoropropan-2-yl 1-ethyl-3,4-dihydroisoquinoline-2(1H)-carboxylate]"
10 to 100,> 1000,> 1000,> 1000,"O=C(OC(C(F)(F)F)C(F)(F)F)N1CCc2cccc(Br)c2C1 [Example 4, 1,1,1,3,3,3-Hexafluoropropan-2-yl 8-bromo-3,4-dihydroisoquinoline-2(1H)-carboxylate]"
10 to 100,> 1000,> 1000,> 1000,"O=C(OC(C(F)(F)F)C(F)(F)F)N1CCc2c(Br)cccc2C1 [Example 16, 1,1,1,3,3,3-Hexafluoropropan-2-yl 5-bromo-3,4-dihydroisoquinoline-2(1H)-carboxylate]"
> 1000,> 1000,> 1000,> 1000,"O=C(OC(C(F)(F)F)C(F)(F)F)N1CCc2cccc(-c3ccccc3)c2C1 [Example 27, 1,1,1,3,3,3-Hexafluoropropan-2-yl 8-phenyl-3,4-dihydroisoquinoline-2(1H)-carboxylate]"
10 to 100,> 1000,> 1000,> 1000,"COc1cc2c(cc1OC)CN(C(=O)OC(C(F)(F)F)C(F)(F)F)C2 [Example 21, 1,1,1,3,3,3-Hexafluoropropan-2-yl 5,6-dimethoxyisoindoline-2-carboxylate]"
> 1000,> 1000,> 1000,> 1000,"CC1Cc2ccccc2CN1C(=O)OC(C(F)(F)F)C(F)(F)F (stereo not drawn) [Example 13, 1,1,1,3,3,3-Hexafluoropropan-2-yl 3-methyl-3,4-dihydroisoquinoline-2(1H)-carboxylate]"
100 to 1000,> 1000,> 1000,> 1000,"O=C(OC(C(F)(F)F)C(F)(F)F)N1Cc2ccc(Cl)nc2C1 [Example 14, 1,1,1,3,3,3-Hexafluoropropan-2-yl-2-chloro-5,7-dihydro-6H-pyrrolo[3,4-b]pyridine-6-carboxylate]"
10 to 100,> 1000,> 1000,> 1000,"COc1ccc(-c2ccc3c(c2)CN(C(=O)OC(C(F)(F)F)C(F)(F)F)C3)cc1F [Example 26, 1,1,1,3,3,3-Hexafluoropropan-2-yl 5-(3-fluoro-4-methoxyphenyl)isoindoline-2-carboxylate]"
10 to 100,> 1000,> 1000,> 1000,"COc1cccc2c1CN(C(=O)OC(C(F)(F)F)C(F)(F)F)C2 [Example 19, 1,1,1,3,3,3-Hexafluoropropan-2-yl 4-methoxyisoindoline-2-carboxylate]"
10 to 100,> 1000,> 1000,> 1000,"CC1(C)C2C(=O)N(OC(=O)N3CC4(CCC(Oc5cncc(F)c5)C4)C3)C(=O)C21 (stereo not drawn) [Example 64, 6,6-Dimethyl-2,4-dioxo-3-azabicyclo[3.1.0]hexan-3-yl 6-((5-fluoropyridin-3-yl)oxy)-2-azaspiro[3.4]octane-2-carboxylate]"
> 1000,> 1000,> 1000,> 1000,"O=C(OC(C(F)(F)F)C(F)(F)F)N1CCc2ccccc2[C@H]1c1ccccc1 [Example 2, 1,1,1,3,3,3-Hexafluoropropan-2-yl(R)-1-phenyl-3,4-dihydroisoquinoline-2(1H)-carboxylate]"
10 to 100,10 to 100,> 1000,> 1000,"O=C(OC(C(F)(F)F)C(F)(F)F)N1CC2(CC(Oc3cccc(F)c3)C2)C1 [Example 53, 1,1,1,3,3,3-Hexafluoropropan-2-yl-6-(3-fluorophenoxy)-2-azaspiro[3.3]heptane-2-carboxylate]"
10 to 100,10 to 100,> 1000,> 1000,"O=C(OC(C(F)(F)F)C(F)(F)F)N1Cc2ccc(OCC(F)F)cc2C1 [Example 45, 1,1,1,3,3,3-Hexafluoropropan-2-yl 5-(2,2-difluoroethoxy)isoindoline-2-carboxylate]"
10 to 100,> 1000,> 1000,> 1000,"O=C(OC(C(F)(F)F)C(F)(F)F)N1CCc2ccccc2C1 [Example 1, 1,1,1,3,3,3-Hexafluoropropan-2-yl 3,4-dihydroisoquinoline-2(1H)-carboxylate]"
> 1000,10 to 100,10 to 100,> 1000,"O=C(OC(C(F)(F)F)C(F)(F)F)N1CC[C@]2(C1)C[C@H](OC(c1ccc(F)cc1)c1ccc(F)cc1)C2 [Example 68, 1,1,1,3,3,3-Hexafluoropropan-2-yl (2s,4r)-2-(bis(4-fluorophenyl)methoxy)-6-azaspiro[3.4]octane-6-carboxylate]"
> 1000,> 1000,> 1000,> 1000,"O=C(OC(C(F)(F)F)C(F)(F)F)N1CCc2ccccc2[C@@H]1c1ccccc1 [Example 3, 1,1,1,3,3,3-Hexafluoropropan-2-yl (S)-1-phenyl-3,4-dihydroisoquinoline-2(1H)-carboxylate]"
100 to 1000,> 1000,> 1000,> 1000,"O=C(OC(C(F)(F)F)C(F)(F)F)N1Cc2cc(Br)cnc2C1 [Example 11, 1,1,1,3,3,3-Hexafluoropropan-2-yl 3-bromo-5,7-dihydro-6H-pyrrolo[3,4-b]pyridine-6-carboxylate]"
10 to 100,> 1000,> 1000,> 1000,"COc1ccc2c(c1)CN(C(=O)OC(C(F)(F)F)C(F)(F)F)C2 [Example 9, 1,1,1,3,3,3-Hexafluoropropan-2-yl 5-methoxyisoindoline-2-carboxylate]"
> 1000,> 1000,> 1000,> 1000,"O=C(OC(C(F)(F)F)C(F)(F)F)N1CCCc2ccccc2C1 [Example 24, 1,1,1,3,3,3-Hexafluoropropan-2-yl 1,3,4,5-tetrahydro-2H-benzo[c]azepine-2-carboxylate]"
100 to 1000,> 1000,> 1000,> 1000,"O=C(OC(C(F)(F)F)C(F)(F)F)N1CCc2cc(Br)ccc21 [Example 10, 1,1,1,3,3,3-Hexafluoropropan-2-yl 5-bromoindoline-1-carboxylate]"
